Source: patent publication US9310359B2, “Analyte quantification using flow induced dispersion analysis” (FIDA-TECH APS, priority 2010, dated 2016)
Like-named read-outs stand apart in the source and are kept apart here.

Assays:
[1] = Flow Induced Dispersion Analysis (FIDA) equilibrium binding constant with βCD; details: complex with βCD, 67 mM phosphate buffer pH 7.4, 25° C., ±standard deviation
Description: The sample volume introduced into the capillary in these experiments corresponds to 9 nL. […] The peak shape may be fitted to a Gaussian peak shape (described in the examples); in this way the temporal peak variance σ^2 can be estimated.
[formula] where σA^2 is the observed variance obtained from a Gaussian fit in the absence of an interacting analyte and σAL^2 is the variance corresponding to the complex AL. […] Corrections due to sample injection and detector variances may be introduced, but as they are small and constant under the present conditions they are neglected.
[formula] where [L] is the concentration of free analyte. […]
In a series of experiments the concentration of βCD in the background electrolyte was varied and the peak variances determined.
βCD, α-naphthol and naproxen was obtained form Sigma-Aldrich. […] The amount of water present in βCD was determined by gravimetric analysis upon drying to constant weight in vacuo at ˜60° C. […]

[2] = Diffusion coefficients from FIDA peak variance (eq 2, capillary radius 25 μm); assay type: physicochemical; details: 67 mM phosphate buffer pH 7.4, 25° C., calculated using eq 2, capillary radius 25 μm; for Diffusion coefficient of the complex DAL: complex with βCD
Text: According to Taylor-Aris theory the temporal peak variance is related to ligand (affinity probe) diffusivity (13,14). Under optimal conditions for a pressure driven flow in a cylindrical capillary the peak variance is inversely proportional to the diffusion coefficient, D, according to (15): [formula] where Rc is the radius of the capillary tube, and tR is the peak appearance time. In the presence of the analyte βCD, the observed variance can be attributed to α-naphthol and the complex between α-naphthol and βCD. We shall assume that the observed variance is a weighted average depending on the fraction of free α-naphthol, x. This assumption is valid when the complexation kinetics is fast compared to the timescale of the experiment (16). […] The experimental points are found to be well described by the model and the estimated binding constants are in good agreement with literature data considering that other methods and different conditions were used (table 1). In table 1, the diffusion coefficients of the analytes and complexes calculated using eq 2 and assuming a capillary radius of 25 μm are also listed. […] Samples were run in triplicate.

[3] = ACE; complex with βCD; 67 mM phosphate buffer pH 7.4; ±standard deviation
Description: Flow induced dispersion and capillary electrophoresis experiments were carried out using an Agilent ^3DCE instrument (Agilent Technologies, Waldbronn, Germany). Uncoated fused silica capillaries of 48.5 cm total length (50 μm i.d., 360 μm o.d.) and 40.5 cm to the detection window were obtained from Polymicro Technologies (Phoenix, Ariz., USA).
New capillaries were conditioned with 1 M NaOH (45 min), Milli-Q water (30 min) and 67 mM phosphate buffer pH 7.4 (30 min). Before a series of experiments the capillary was refreshed by flushing with 1 M NaOH (10 min) and 67 mM phosphate buffer pH 7.4 (10 min). In FIDA, the capillary was preconditioned by flushing the capillary with 0.1 M NaOH (2 min) and run buffer (2 min). The sample was injected by applying a pressure of 50 mbar for 5 sec. Subsequently a pressure of 50 mbar was applied across the capillary to force the sample through it. Finally the sample was detected by UV absorbance at 230 nm. Samples were run in triplicate. The peak variance was obtained by fitting the UV signal to a Gaussian peak shape. The Gaussian in addition to peak variance and peak appearance time the function incorporates a constant A to account for signal height and a constant y0 to account for a possible detector offset.

[4] = literature data (18, 19); cited from earlier work
[5] = complex with βCD; literature data (17); cited from earlier work

Structure (SMILES)	Equilibrium binding constant K [1]	Diffusion coefficient of the free analyte DA [2]	Diffusion coefficient of the complex DAL [2]	Equilibrium binding constant K [3]	Diffusion coefficient of the free analyte DA [4]	Equilibrium binding constant K [5]
COc1ccc2cc([C@H](C)C(=O)O)ccc2c1 [Naproxen, naproxen]	1050 (±185) M^−1	5.6 · 10^−6 cm^2 s^−1	2.8 · 10^−6 cm^2 s^−1	650 (±28)^f M^−1	5.8 · 10^−6g cm^2 s^−1	–
Oc1cccc2ccccc12 [α-Naphthol, α-naphthol]	2400 (±240) M^−1	9.3 · 10^−6 cm^2 s^−1	3.3 · 10^−6 cm^2 s^−1	–	9.2 · 10^−6e cm^2 s^−1	1250^d M^−1
